The record followed here is PubChem BioAssay AID720512 (Broad Institute, 2013).

Activity calls are given as the source filed them. How the calls were made is not given here. A value given as a limit tells only on which side of the number the result lay.

In general, AC50 refers to the concentration at which the activity in the assay is half-maximal.

One assay addresses Toxin B (TcdB) glycohydrolase, Clostridioides difficile 630. The assay can be described thus: TcdB glycohydrolase inhibitors, dose response, biochemical, cherry-pick, plate reader (AID 720512). As to conditions: recombinant TcdB glycohydrolase activity.
Take `CCOc1ccc(/C=N/n2nnnc2N)cc1O`: the AC50 was > 39 µM (inactive).

With `CCNC(=O)C[C@H]1CC[C@@H]2[C@@H](COc3ccc(NC(=O)c4ccc5c(c4)OCO5)cc3C(=O)N2C)O1`, the AC50 is > 39 µM (inactive).

Regarding `CC1=NCCc2c1[nH]c1cc(O)ccc21`, the AC50 is 9.94 µM. Same read-out and setting: in the case of `CCOC(=O)c1[nH]nc(-c2cc(CC)c(O)cc2O)c1-c1cscn1` it was > 39 µM (inactive).

Take `Cc1ccc(C)c2c1cc(C)c1nnc(SCC(=O)NCc3ccc4c(c3)OCO4)n12`: the AC50 is > 39 µM (inactive).

The assay is the same for the next values; noted with them: recombinant TcdB glycohydrolase activity, at 19.5 µM (top of the series).
As for `COc1cc(/C=N/NC(=O)Cn2nnc3ccccc32)ccc1O`, the “activity change, negative = inhibition” value is “inactive”. Turning to `O=C(Nc1sc2c(c1C(=O)O)CCCC2)c1ccc(Cl)cc1`, the “activity change, negative = inhibition” value was “inactive”. Same read-out and setting: in the case of `Oc1ccc(-c2nccs2)cc1` it was “inactive”; in that of `Cc1c(Cl)cccc1NC(=O)C1Cc2ccccc2CN1C(=O)c1ccccc1` (stereo unspecified), “inactive”; in that of `CNC(=O)C1CCN(S(=O)(=O)c2c(C)noc2/C=C/c2ccc(C)cc2)CC1`, “inactive”. Same read-out and setting: the same measure for `CCCNC(=O)C1(C)CCCN(C(=O)c2ccccc2OC(F)(F)F)C1` (stereo unspecified): “inactive”; for `Cc1ccc(C(=O)COC(=O)c2cc(=O)[nH]c3ccccc23)cc1`: “inactive”; for `O=C(COc1ncnc2ccccc12)NCCc1ccc(F)cc1`: “inactive”. On the same count and under the same terms, the same measure for `CCc1ccc2oc(-c3cc(N)ccc3Cl)nc2c1`: “inactive”. As to `O=C(c1ccccc1F)N1CCN(c2ccc([N+](=O)[O-])c3cccnc23)CC1`, the “activity change, negative = inhibition” value is “inactive”. As for `Cc1cc(C)c(NS(=O)(=O)c2cccc3cccnc23)c(C)c1`, the “activity change, negative = inhibition” value is “inactive”. The same measure, in the same setting: the same measure for `O=C(Nc1ccc(O)cc1)/C(=C/c1ccco1)NC(=O)c1ccccc1`: “inactive”. Still for that read-out and setting: in the case of `CNC(=O)C[C@H]1CC[C@@H]2[C@@H](COc3ccc(NC(=O)c4ccc(OC)cc4)cc3C(=O)N2C)O1` it was “inactive”; in that of `Cc1cc(C)c2sc(NNC(=O)C3COc4ccccc4O3)nc2c1` (stereo unspecified), “inactive”; in that of `COc1ccc(C(NC(C)=O)c2cc(Cl)c3cccnc3c2O)cc1` (stereo unspecified), “inactive”. For `COc1ccc(C)cc1NC(=O)C(OC(=O)C1=NNC(=O)CC1)c1ccccc1` (stereo unspecified), the “activity change, negative = inhibition” value is “inactive”. Still for that read-out and setting: the same measure for `Cc1nc(SCC(=O)N2CCNC2=O)c(C#N)c(C)c1C`: “inactive”; for `O=C(OCn1nnc2ccccc2c1=O)c1cc2ccccc2o1`: “inactive”. On the same count and under the same terms, in the case of `Cc1ccnc(N2C(=O)c3ccccc3C2=O)c1` it was “inactive”; in that of `O=C(NCc1ccccc1)C1Cc2c(-c3cccc(F)c3)ccnc2O1` (stereo unspecified), “inactive”. Still for that read-out and setting: in the case of `COc1ccc(NS(=O)CCCc2ccccc2)cc1` (stereo unspecified) it was “inactive”; in that of `COc1ccc(S(=O)(=O)N2CCOCC2)cc1NC(=O)COC(=O)c1[nH]c(C)c(C(C)=O)c1C`, “inactive”; in that of `CCCc1cc(=O)oc2c3c(cc(OCC(=O)NCCCn4ccnc4)c12)OC(C)(C)CC3`, “inactive”. `COc1ccc(C2=NS(=O)(=O)N(C)C(C(=O)N3CCOCC3)=C2)cc1`: the “activity change, negative = inhibition” value was “inactive”. `O=S(=O)(Oc1ccccc1-c1ccccc1)c1ccccc1`: the “activity change, negative = inhibition” value was “inactive”. On to `O=C(C[C@H]1CC[C@H]2[C@@H](COC[C@@H](O)CN2Cc2ccccc2)O1)NCCc1ccccc1`, for which the “activity change, negative = inhibition” value was “inactive”. Same read-out and setting: in the case of `CCNC(=O)C[C@H]1CC[C@@H]2[C@H](COc3ccc(NC(C)=O)cc3C(=O)N2C)O1` it was “inactive”; in that of `Cc1ccc(/C=C/c2onc(C)c2S(=O)(=O)N2CCC(C(=O)N3CCCCC3)CC2)cc1`, “inactive”.

With `c1ccc(-c2nnc(OCC3CCCO3)c3ccccc23)cc1` (stereo unspecified), the “activity change, negative = inhibition” value was “inactive”. On the same count and under the same terms, the same measure for `COc1ccccc1C=C1SC(=S)NC1=O`: “inactive”; for `CCN(CC)CCNC(=O)C1CCN(S(=O)(=O)c2c(C)noc2/C=C/c2ccccc2F)CC1`: “inactive”. The same measure, in the same setting: in the case of `Cc1cc(C)nc(NC(N)=NCCc2ccccc2)n1` it was “inactive”. Still for that read-out and setting: in the case of `O=S(=O)(Cc1cccc(F)c1)c1c[nH]c2ccccc12` it was “inactive”. For `COc1ccc(N2CCN(CCNC(=O)Nc3cc(Cl)ccc3OC)CC2)cc1`, the “activity change, negative = inhibition” value is “inactive”.

With `Cc1ccc(S(=O)(=O)Oc2ccccc2/C=C2\SC(=O)NC2=O)cc1`, the “activity change, negative = inhibition” value was “inactive”. On to `CC(=O)c1cccc(OCC(=O)c2cc(C)n(-c3cc(C)on3)c2C)c1`, for which the “activity change, negative = inhibition” value is “inactive”. On the same count and under the same terms, in the case of `CCCC(=O)Nc1sc2c(c1C(=O)Nc1ccccn1)CCCC2` it was “inactive”; in that of `CC(=O)Nc1ccc(NC(=O)[C@@H]2CCCN2S(=O)(=O)c2ccc3c(c2)OCCO3)cc1`, “inactive”. Still for that read-out and setting: the same measure for `COc1cc(/C=C(\C#N)C(=O)N2CCCCC2)ccc1O`: “inactive”; for `CCOCCCNC(=O)C1CCN(S(=O)(=O)c2c(C)noc2/C=C\c2ccc(OC)cc2)CC1`: “inactive”; for `CCOc1ccc2c(C)nc(NC3=NC(C)(C)C=C(C)N3)nc2c1`: “inactive”. Consider `O=C(N/N=C/c1ccc(O)cc1)NC12CC3CC(CC(C3)C1)C2`, for which the “activity change, negative = inhibition” value was “inactive”.

As to `O=c1c2ccccc2oc2ccc(NCCCN3CCOCC3)cc12`, the “activity change, negative = inhibition” value is “inactive”.

Consider `O=C(NNc1ccc(-c2csnn2)cc1)c1cc(Cl)cc(Cl)c1`, for which the “activity change, negative = inhibition” value is “inactive”. Still for that read-out and setting: the same measure for `Nc1nc(Nc2ccccc2)n[nH]1`: “inactive”; for `COC(=O)c1ccc(NC(=S)Nc2ccc(O)cc2)cc1`: “inactive”.
